Reference: patent publication US20160120915A1, “METHODS FOR MANIPULATING IMMUNE RESPONSES BY ALTERING MICROBIOTA” (NEW YORK UNIVERSITY, priority 2013, published 2016)
Entries after “also recorded” stand apart in the source; their conditions may differ. Where a name gives a salt, the structure may show the parent alone.

Legend:
pancreatic islets = experiment: NOD: pancreatic insulitis scoring in 6-week old mice; type: in vivo; conditions: p<0.05
Experimental: Pancreata from 6-week-old control, STAT and PAT mice were fixed in modified Bouin's fixative (17 ml saturated aqueous picric acid, 1 ml glacial acetic acid, 2 ml 38-40% formalin) and paraffin embedded, cut, and stained with Aldehyde Fuchsin for insulitis scoring (Leiter, Curr Protoc Immunol. 2001; Chapter 15:Unit 15 9). Five sections were made for each pancreas. Each of the sections is 5 microns thick with a 70 microns gap between sections. Insulitis was scored on a scale of 0-4: 0, normal islet; 1, peri-insular leukocyte aggregates; 2, leukocyte infiltration <25%; 3, leukocyte infiltration >25%, but <75%; 4, leukocyte infiltration >75% and β-cell destruction. For each mouse, an insulitis score was calculated based on the following formula: (total score for all islets)/(4×number of islets examined) (Forestier et al., Journal of immunology. 2007; 178, 1415). […] The most severely affected islet was scored from each section. Insulitis was scored on a scale of 0-4: 0, normal islet; 1, peri-insular leukocyte aggregates; 2, leukocyte infiltration <25%; 3, leukocyte infiltration >25%, but <75%; 4, leukocyte infiltration >75% and β-cell destruction, according to standard criteria. For the females, we scored at least 24 islets per group (5 mice per group). […] For the males, 25 islets were scored for the control and PAT group (5 mice per group), and 15 islets from the STAT group (3 mice). […]

[1] = system: small intestinal lamina propria T-helper cells; experiment: NOD: flow cytometry of Treg and Th17 cells in spleen and SI-LP; type: in vivo, NOD mice; conditions: for percent of SI-LP Th17 (CD4+RORγT+) cells / percent of SI-LP Treg (CD4+ FOXP3+) cells: 6-week old male NOD mice, vs controls
Experimental: After euthanasia of the mice by CO2 asphyxiation followed by cervical dislocation, the small intestines were dissected and immediately placed in cold calcium and magnesium-free DPBS, followed by removal of the mesenteric fat and Peyer's patches. The intestines were opened longitudinally and contents were removed by washing thoroughly with cold DPBS. The intestines were then cut into 2 cm pieces and treated with 10 ml 1 mM DTT/PBS, shaken at RT for 10 minutes to remove contaminating intraepithelial lymphocytes. Subsequently, the intestinal tissue was treated two times with 30 mM EDTA and 10 mM HEPES in PBS to remove epithelial cells. To isolate lamina propria lymphocytes, intestinal tissue was digested for 1.5 hours at 37° C. in digestion mix (0.5 mg/ml Collagenase/Dispase (Roche), 150 μg /ml DNase 1 (Sigma) in complete RPMI. Cells were passed through a 100 μm diameter nylon mesh filter (BD Bioscience). For further purification of leukocytes, intestinal cell suspensions were resuspended in 40% Percoll, under-layered with 80% Percoll (GE Healthcare Life Sciences) and centrifuged at 2,200 rpm for 25 minutes at room temperature. The leukocytes were collected at the interphase of the 40% 80% discontinuous Percoll gradient, then washed and re-suspended in DPBS for staining.
Cells were incubated with blue Live/DEAD fixable dye (Invitrogen) for 10 minutes at 4° C. to identify live cells. Intestinal leukocytes were phenotyped using the following antibodies: CD3-APC-Cy™7 (BD Biosciences), CD4− PE-Alexa Fluor 610 (Invitrogen), CD8− V500 (BD Biosciences), RORγt-PE (eBioscience), Foxp3-PE-Cy7 (eBioscience). Cells were first incubated with surface antibodies (each at 1:50 in FACS buffer) along with FC block (Anti-Mouse CD16/CD32, eBioscience) at 1:200 for 30 minutes at 4° C. Then the cells were fixed and permeabilized with Fix/Perm (eBioscience) and subsequently incubated with the nuclear antibodies in perm/wash buffer for 30 minutes at 4° C. (eBioscience).
All cells were acquired on a LSRII (BD Biosciences) and analyzed using FlowJo software (version 9.3.2; Tree Star Inc.).
Flow cytometry was performed on splenic and SI-LP cells from 6-week old male and female NOD mice. CD3 and CD4 surface stains and a live/dead stain were used to gate on live T-helper cells. Nuclear staining for FOXP3 and RORγT was performed to identify Treg and Th17 cells, respectively. By qPCR, SFB was below detectable limits in fecal specimens collected at 3 weeks and 6 weeks of age from all of the mice used in the above analysis. The range for SFB qPCR assay was from 10^2 to 10^6 copies of SFB. […] PAT decreased the percent of SI-LP Treg and Th17 cells in male, but not female NOD mice. C=controls, S=STAT, P=PAT. Statistical analysis was performed on each tissue separately, using the Kruskal-Wallis test followed by the Dunn's multiple comparison test, ** p≦0.01. […] This work provides evidence that PAT changes T-cell populations in the NOD mice that are developing T1D and insulitis earlier.

NOD mice = experiment: NOD PAT/STAT: type 1 diabetes incidence; type: in vivo, NOD/ShiLTj mice
Source text: Pregnant NOD/ShiLTj mice were randomized into 3 groups: Control, STAT, and PAT. Control mice were maintained on non-acidified sterilized water. STAT pregnant dams were given low dose penicillin beginning late in pregnancy until pups were 12 weeks of age. PAT mice were given 3 therapeutic doses of tylosin starting on day 10 of life. At 6 weeks of age, 13 male (5 control, 3 STAT, 5 PAT) and 15 female (5 per group) NOD mice were sacrificed for immune-phenotyping by flow cytometry and ileal gene expression analysis by microarray and qPCR. From 10 weeks of age to 31 weeks of age, mice were tested for diabetes weekly by blood glucose measurement and urinary glucose detection. Onset of diabetes was defined as two consecutive weeks of blood glucose >250 mg/dl and glucosuria.
For the NOD experiments, dams (and their litters) were divided into control, STAT, and PAT groups (FIG. 33). The control mice were given non-acidified sterilized water throughout the experiments, and for the 2 antibiotic groups (STAT and PAT), the antibiotics were dissolved in non-acidified sterilized water. For STAT, subtherapeutic penicillin VK (1 mg/kg/day) was added to the drinking water in late pregnancy (so that the pups pass through an altered vaginal microbiota), and then continued until day 84 of life. […] Mice were monitored for diabetes onset by glucosuria and blood glucose, starting at 10 weeks of age. […]

CC[C@H]1OC(=O)C[C@@H](O)[C@H](C)[C@@H](O[C@@H]2O[C@H](C)[C@@H](O[C@H]3C[C@@](C)(O)[C@@H](O)[C@H](C)O3)[C@H](N(C)C)[C@H]2O)[C@@H](CC=O)C[C@@H](C)C(=O)/C=C/C(C)=C/[C@@H]1CO[C@@H]1O[C@H](C)[C@@H](O)[C@@H](OC)[C@H]1OC [Tylosin, Tylosin tartrate]
insulitis (score 0-4) (pancreatic islets; 6-week old NOD males, vs control or STAT males): significantly more | decrease of percent of SI-LP Treg and Th17 cells ([1]; 6-week old female NOD mice): not | percent of SI-LP Th17 (CD4+RORγT+) cells [1]: decreased | percent of SI-LP Treg (CD4+ FOXP3+) cells [1]: decreased | development of T1D (diabetes incidence) (NOD mice; male NOD mice, onset = 2 consecutive weeks blood glucose >250 mg/dl and glucosuria, vs control, listed as PAT): accelerated; also recorded: higher rate

CC1(C)S[C@@H]2[C@H](NC(=O)COc3ccccc3)C(=O)N2[C@H]1C(=O)[O-].[K+] [STAT, penicillin VK]
islet inflammation (insulitis score 0-4) (pancreatic islets; 6-week old NOD females, vs controls): significantly more | percent of SI-LP Th17 (CD4+RORγT+) cells [1]: intermediate | percent of SI-LP Treg (CD4+ FOXP3+) cells [1]: intermediate | type 1 diabetes expression (NOD mice; NOD mice, STAT-antibiotic-treated): no different from controls
